Data: patent US10766898B2, “Therapeutic compound for pain and synthesis thereof” (priority 2015, dated 2020)
“And” between values parts separate entries of the source, which are not always exact repeats. Identical values can stand only once.

Tested on: heat hypersensitivity of λ-carrageenan-injected right hind paws of mice
Experiment: λ-carrageenan-induced paw inflammation, heat hypersensitivity on hotplate (57° C.), time until first response
Format: in vivo
Details: for Response time at 3.5 h, avg: average of n=5 animals; for Response time at 3.5 h, avg / Response time at 3.5 h: 10 mg/kg ip 30 min before 1% λ-carrageenan, hotplate 57° C., 3.5 h after carrageenan; for Response time at 3.5 h: individual animal, 10 mg/kg; for average response time compared with pretreatment baseline response time: n=5 animals, 10 mg/kg ip, 3.5 h after λ-carrageenan
Procedure: Intra plantar injection of 1% […] may be used to induce local inflammation to the paws of test subject mice. In general, local inflammation is expressed as paw swelling and increased sensitivity to heat stimuli. Therefore, the effect of a test item on changes in heat hypersensitivity can be assessed. Using the protocol set forth, the therapeutic effect of the compounds of Formula XVIII and XXII were evaluated.
Animals were dosed with a test compound at time zero (control where given vehicle only) at 10 mg/kg ip (test item was dissolved in a 20% […] solution). After 30 minutes the animals were slightly anesthetized with isoflurane, and 0.1 ml of a 1% λ-carrageenan suspension in Distilled Water was injected into the plantar side of the right hind paws of the mice. After 3.5 hours after the λ-carrageenan administration, the animals were placed on a hotplate apparatus maintained at 57° C., and the time until the first response was recorded.

Row | Structure (SMILES) | Response time at 3.5 h, avg [s] | Response time at 3.5 h | average response time compared with pretreatment baseline response time
1 | COCC(=O)N1C[C@@H]2C[C@@H]3C1[C@@H](O)[C@H](C2)N3Cc1cccc(C(N)=O)c1 (relative stereo) [Compound of Formula XXII, 3-(((2S*,3S*,6R*,7aR*)-3-hydroxy-4-(2-methoxyacetyl)octahydro-1H-2,6-methanopyrrolo[3,2-b]pyridin-1-yl)methyl)benzamide] | 12.2 | 12 sec (2×) and 14 sec and 13 sec and 10 sec | exceeded the pretreatment baseline response time
2 | O=C(O[C@H]1[C@@H]2[C@@H]3C[C@@H](C[C@H]1N3Cc1ccc3c(c1)OCO3)CN2C(=O)c1ccc(F)cn1)C1CC1 (relative stereo) [Compound of Formula XVIII, (2R*,3R*,3aS*,6S*,7aS*)-1-(benzo[d][1,3]dioxol-5-ylmethyl)-4-(5-fluoropicolinoyl)octahydro-1H-2,6-methanopyrrolo[3,2-b]pyridin-3-yl cyclopropanecarboxylate] | 14.6 | 16 sec (2×) and 14 sec and 12 sec and 15 sec | exceeded the pretreatment baseline response time
